Molecular target: CDK2 (human) (UniProt P24941)
Assay: Enzyme Assay

IC50, < 100 µM:
CCc1c(N[C@H]2CC[C@H](N)CC2)nc2ccnn2c1Nc1ccc(F)c(Cl)c1
Cc1c(N[C@H]2CC[C@H](N)CC2)nc2ccnn2c1Nc1ccc(OC2CCCC2)cc1
CCOc1ccc(Nc2c(C)c(N[C@H]3CC[C@H](N)CC3)nc3c(C4CCCCC4)cnn23)cc1
CCc1c(N[C@H]2CC[C@H](N)CC2)nc2ccnn2c1Nc1ccc(N2CCCCC2)cc1
Cc1c(N[C@H]2CC[C@H](N)CC2)nc2ccnn2c1Nc1ccc(-c2cccc(N(C)C)c2)cc1
Cc1c(N[C@H]2CC[C@H](N)CC2)nc2ccnn2c1Nc1ccc(C(=O)c2ccccc2)cc1
Cc1c(N[C@H]2CC[C@H](N)CC2)nc2ccnn2c1Nc1ccc(C(=O)Nc2ccccc2)cc1
Cc1c(N[C@H]2CC[C@H](N)CC2)nc2ccnn2c1Nc1ccc(-c2ccc(F)cc2)cc1
CCc1c(N[C@H]2CC[C@H](N)CC2)nc2ccnn2c1Nc1ccc(OC)c(C(F)(F)F)c1
Cc1c(N[C@H]2CC[C@H](N)CC2)nc2ccnn2c1Nc1ccc(-c2ccccc2F)cc1
CCOc1ccc(Nc2c(C)c(NC3(CO)CCCC3)nc3ccnn23)cc1
CCOc1ccc(Nc2c(C)c(N[C@H]3CC[C@H](N)CC3)nc3c(C(=O)Nc4ccccn4)cnn23)cc1
Cc1c(N[C@H]2CC[C@H](N)CC2)nc2ccnn2c1Nc1ccc2[nH]ncc2c1
CCOc1ccc(Nc2c(C)c(N[C@H]3CC[C@H](N)CC3)nc3c(N)cnn23)cc1
CCOc1cccc(Nc2cc(N[C@H]3CC[C@H](N)CC3)nc3c(C#N)cnn23)c1
COc1cccc(COc2cccc(Nc3c(C)c(N[C@H]4CC[C@H](N)CC4)nc4ccnn34)c2)c1
CCc1c(NC2CCNCC2)nc2ccnn2c1Nc1ccc(F)c(Cl)c1
Cc1c(N[C@H]2CC[C@H](N)CC2)nc2ccnn2c1Nc1ccc(-c2cccc(O)c2)cc1
Cc1c(N[C@H]2CC[C@H](N)CC2)nc2ccnn2c1Nc1ccc2cc[nH]c2c1
Cc1c(N[C@H]2CC[C@H](N)CC2)nc2ccnn2c1Nc1ccc(OCCc2ccccn2)cc1
CCc1c(N[C@H]2CC[C@H](N)CC2)nc2ccnn2c1Nc1cccc(Br)c1
CCc1c(N[C@H]2CC[C@H](N)CC2)nc2ccnn2c1Nc1ccc(N2CCCC2=O)cc1
CCc1c(NC2CCCNC2)nc2ccnn2c1Nc1ccc(Br)cc1 (centres undefined)
Cc1c(N[C@H]2CC[C@H](N)CC2)nc2ccnn2c1Nc1ccccc1Cl
Cc1ccccc1-c1ccc(Nc2c(C)c(N[C@H]3CC[C@H](N)CC3)nc3ccnn23)cc1
CCOc1ccc(Nc2c(C)c(N[C@H]3CC[C@H](N)CC3)nc3c(C(=O)Nc4cccnc4)cnn23)cc1
COc1c(NC2CCCNC2)nc2ccnn2c1Nc1ccc(F)c(Cl)c1 (centres undefined)
CCCCOc1ccc(Nc2c(CCCO)c(N[C@H]3CC[C@H](N)CC3)nc3ccnn23)cc1
Fc1ccc(Nc2cc(NC3CCCNC3)nc3c(Br)cnn23)cc1Cl (centres undefined)
Cc1c(N[C@H]2CC[C@H](N)CC2)nc2ccnn2c1Nc1ccc(-c2cc3ccccc3s2)cc1
Cc1c(N[C@H]2CC[C@H](N)CC2)nc2ccnn2c1Nc1ccc(-c2ccoc2)cc1
COCCOc1ccc(Nc2c(C)c(N[C@H]3CC[C@H](N)CC3)nc3ccnn23)cc1
CCc1c(N[C@H]2CC[C@H](N)CC2)nc2ccnn2c1Nc1ccc(OC)c(OC)c1
CCOc1ccc(Nc2c(C)c(N[C@H]3CC[C@H](N)CC3)nc3c(C(=O)Nc4ccccc4)cnn23)cc1
N[C@H]1CC[C@H](Nc2cc(Nc3ccccc3Cl)n3ncc(I)c3n2)CC1
CCc1c(NC2CCCNC2)nc2ccnn2c1Nc1ccc(OC)c(Cl)c1 (centres undefined)
Cc1nc2cc(Nc3c(C)c(N[C@H]4CC[C@H](N)CC4)nc4ccnn34)ccc2s1
COc1ccc(Nc2c(CCCO)c(N[C@H]3CC[C@H](N)CC3)nc3ccnn23)cc1OC
Cc1c(NC2CCCNC2)nc2ccnn2c1Nc1ccc(-c2cccc(N)c2)cc1 (centres undefined)
CCOc1ccc(Nc2c(C)c(N(C)C3CCCNC3)nc3ccnn23)cc1 (centres undefined)
Cc1c(N[C@H]2CC[C@H](N)CC2)nc2ccnn2c1Nc1ccc(C(=O)NCc2ccco2)cc1
Cc1cccc(-c2ccc(Nc3c(C)c(N[C@H]4CC[C@H](N)CC4)nc4ccnn34)cc2)c1
CCOc1ccc(Nc2c(C)c(NC3CCCNC3)nc3c(CC)cnn23)cc1 (centres undefined)
Cc1c(N[C@H]2CC[C@H](N)CC2)nc2ccnn2c1Nc1ccc(OCC2CCCN(C)C2)cc1 (some centres undefined)
CCOc1ccc(Nc2c(C)c(NC(CO)C(C)C)nc3ccnn23)cc1 (centres undefined)
CCOc1ccc(Nc2c(C)c(NC3CCCNC3)nc3c(C4CC4)cnn23)cc1 (centres undefined)
CSc1cnn2c(Nc3ccc(F)c(Cl)c3)cc(N[C@H]3CC[C@H](N)CC3)nc12
Cc1c(N[C@H]2CC[C@H](N)CC2)nc2ccnn2c1Nc1cccc(OCc2ccc(Cl)cc2)c1
Cc1c(N[C@H]2CC[C@H](N)CC2)nc2ccnn2c1Nc1ccc(OCCn2ccnc2)cc1
CCOc1ccc(Nc2c(C)c(N[C@H]3CC[C@H](N)CC3)nc3c(CC)cnn23)cc1
CCc1c(N[C@H]2CC[C@H](N)CC2)nc2ccnn2c1Nc1ccccc1
Cc1ccc(Nc2c(C)c(N[C@H]3CC[C@H](N)CC3)nc3ccnn23)cc1C
Cc1c(N[C@H]2CC[C@H](N)CC2)nc2ccnn2c1Nc1ccc2c(c1)OCCO2
Cc1c(NC2CCCNC2)nc2ccnn2c1Nc1ccc(-c2ccsc2)cc1 (centres undefined)
COc1ccccc1-c1ccc(Nc2c(C)c(N[C@H]3CC[C@H](N)CC3)nc3ccnn23)cc1
CCc1c(NC2CCCNC2)nc2ccnn2c1Nc1ccc(F)c(Cl)c1 (centres undefined)
CCc1c(N[C@H]2CC[C@H](N)CC2)nc2ccnn2c1Nc1ccc(OC(F)(F)C(F)F)cc1
Cc1c(N[C@H]2CC[C@H](N)CC2)nc2ccnn2c1Nc1ccc(-c2ccccc2Cl)cc1
N#Cc1cnn2c(Nc3ccccc3Cl)cc(N[C@H]3CC[C@H](N)CC3)nc12
CCOc1ccc(Nc2c(C)c(N[C@H]3CC[C@H](N)CC3)nc3c(C(=O)NCCN(C)C)cnn23)cc1
CCCNc1c(C)c(N[C@H]2CC[C@H](N)CC2)nc2ccnn12
Cc1c(N[C@H]2CC[C@H](N)CC2)nc2ccnn2c1Nc1ccc(OC2CCCCC2)cc1
Cc1c(N[C@H]2CC[C@H](N)CC2)nc2ccnn2c1Nc1ccc(O)cc1
CCOc1ccc(Nc2c(C)c(N[C@H]3CC[C@H](N)CC3)nc3c(NC)cnn23)cc1
CCOc1ccc(Nc2c(C)c(N[C@H]3CC[C@H](N)CC3)nc3ccnn23)cc1
CCCCOc1ccc(Nc2c(CC)c(N[C@H]3CC[C@H](N)CC3)nc3ccnn23)cc1
Cc1c(N[C@H]2CC[C@H](N)CC2)nc2ccnn2c1Nc1ccc(-c2ccncc2)cc1
Cc1c(N[C@H]2CC[C@H](N)CC2)nc2ccnn2c1Nc1ccc(-c2csc3ccccc23)cc1
CCOc1ccc(Nc2c(C)c(N[C@H]3CC[C@H](N)CC3)nc3c(C#N)cnn23)cc1
Cc1c(N[C@H]2CC[C@H](N)CC2)nc2ccnn2c1Nc1cccc(I)c1
Cc1c(N[C@H]2CC[C@H](N)CC2)nc2ccnn2c1Nc1ccc(OCC2CCCCC2)cc1
Cc1c(NC2CCCNC2)nc2ccnn2c1Nc1ccc(-c2cccc(CO)c2)cc1 (centres undefined)
CCOc1ccc(Nc2c(C)c(N[C@@H]3CCNC3)nc3ccnn23)cc1
CCc1c(N[C@H]2CC[C@H](N)CC2)nc2ccnn2c1Nc1cccc(C(N)=O)c1

Source: the Kinase Knowledgebase extract (Sharma et al. 2016)
